Here are results for three compounds from patent publication US10927136B2, “Phosphorus prodrugs of pyrazolo-substituted pyrimidine sGC stimulators” (Cyclerion Therapeutics, Inc., priority 2016, dated 2021).

Where two headings read alike, the source gives them in different places.

The target of series [1] is T1, sGC enzyme (Homo sapiens, UniProt Q02108+Q02153).
T1 construct: sGC enzyme activity values in HEK cells, determined by the GloSensor assay; host or cells: HEK293 expressing GloSensor 40F cGMP
T1 sequence (Q02153 1-619): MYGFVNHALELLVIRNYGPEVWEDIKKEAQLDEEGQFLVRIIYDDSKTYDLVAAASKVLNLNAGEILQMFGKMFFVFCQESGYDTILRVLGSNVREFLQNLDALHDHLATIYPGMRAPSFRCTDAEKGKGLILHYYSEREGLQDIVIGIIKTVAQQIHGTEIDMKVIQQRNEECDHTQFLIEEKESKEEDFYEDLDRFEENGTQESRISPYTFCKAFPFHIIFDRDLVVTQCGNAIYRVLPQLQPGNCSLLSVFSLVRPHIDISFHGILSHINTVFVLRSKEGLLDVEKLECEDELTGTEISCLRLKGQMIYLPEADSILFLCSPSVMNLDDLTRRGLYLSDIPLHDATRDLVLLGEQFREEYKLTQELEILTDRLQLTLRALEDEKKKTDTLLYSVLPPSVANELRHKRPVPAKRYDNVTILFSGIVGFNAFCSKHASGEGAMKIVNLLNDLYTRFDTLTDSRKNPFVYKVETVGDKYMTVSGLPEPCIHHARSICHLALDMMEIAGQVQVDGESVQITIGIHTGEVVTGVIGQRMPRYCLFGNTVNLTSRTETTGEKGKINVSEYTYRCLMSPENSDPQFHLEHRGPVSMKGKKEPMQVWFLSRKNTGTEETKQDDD
T1 sequence (Q02108 1-690): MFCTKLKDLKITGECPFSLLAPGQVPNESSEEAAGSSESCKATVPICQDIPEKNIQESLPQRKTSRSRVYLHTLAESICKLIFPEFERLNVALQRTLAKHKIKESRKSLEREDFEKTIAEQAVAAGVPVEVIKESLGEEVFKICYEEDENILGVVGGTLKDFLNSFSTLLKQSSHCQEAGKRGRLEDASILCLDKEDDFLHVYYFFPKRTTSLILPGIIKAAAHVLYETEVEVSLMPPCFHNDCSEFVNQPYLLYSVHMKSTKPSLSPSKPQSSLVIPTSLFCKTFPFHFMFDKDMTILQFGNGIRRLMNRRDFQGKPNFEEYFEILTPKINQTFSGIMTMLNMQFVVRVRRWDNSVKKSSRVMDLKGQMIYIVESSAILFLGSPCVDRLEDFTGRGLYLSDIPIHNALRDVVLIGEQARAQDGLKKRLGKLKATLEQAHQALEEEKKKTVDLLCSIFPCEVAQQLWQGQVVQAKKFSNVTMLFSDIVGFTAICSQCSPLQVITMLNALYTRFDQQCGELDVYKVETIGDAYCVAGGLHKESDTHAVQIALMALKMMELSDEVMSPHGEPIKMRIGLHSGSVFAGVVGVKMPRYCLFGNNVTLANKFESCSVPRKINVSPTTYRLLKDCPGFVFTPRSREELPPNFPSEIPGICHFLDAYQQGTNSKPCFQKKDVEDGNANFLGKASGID
Put plainly: cGMP GloSensor cell-based assay, 384-well format. Particulars: for EC50: HEK293 GloSensor 40F cGMP cells, 10 μM DETA-NONOate, read-out: Absolute EC50. An excerpt:
Human embryonic kidney cells (HEK293) cells expressing GloSensor™ 40F cGMP (Part No: CS182801, Promega) were used to evaluate the activity of test compounds. The luminescent biosensors (engineered luciferase) that were incorporated into these cells detect cGMP formed by the compounds stimulating the sGC enzyme and emit luminescence.
cGMP GloSensor cells were maintained in Dulbecco's Modification of Eagle's Medium (DMEM) supplemented with fetal bovine serum (FBS, 10% final) and hygromycine (200 ug/ml). The day before assay, cells were plated in DMEM with 10% FBS in a 50 μL volume at a density of 1.5×10^4 cells/well in a poly-D-lysine coated 384-well flat white-bottom plate (Corning Cat. No. 35661). Cells were incubated overnight at 37° C. in a humidified chamber with 5% CO2. The next day, medium was removed and cells were replaced with 40 ul/well of GloSensor™, 2 mM (Promega Cat No E1291). Cells were treated for 90 minutes at 25° C. to allow the substrate to equilibrate in the cells. Test compounds and Diethylenetriamine NONOate (DETA-NONOate) was diluted to 3 mM (20×) in serum-free CO2 independent medium and serially diluted at 4× dilutions to create 5× dose curve from which 10 ul was added to the wells (x μM concentration for test compound solution and 10 μM concentration for DETA-NONOate solution; wherein x is one of the following final concentrations).
For the kinetics studies, luminescence was measured right away for 0.2 sec per well with Envision (Perkin Elmer). For endpoint SAR screening, data were collected after 55 min incubation at room temperature.
Data analysis was carried out as indicated above in Example 2A.
sGC enzyme activity values in HEK cells, determined by the GloSensor assay, expressed as Absolute EC50 which is defined as the concentration at which a given compound elicits 50% of the high control response obtained with Compound Y, after normalization.

Series [2] can be described thus: Ex-vivo rat intestinal fluid stability assay. Also on record: half-life: dose or concentration left out as unconfirmed. The format is in vitro ADME. To be noted: 37° C.; for prodrug converted into its parent drug / cleaved: after 60 minutes of incubation; for half-life: rat intestinal (jejunum) fluid, read-out: disappearance half-life (T1/2). On the procedure:
Phosphate prodrugs disclosed herein were designed to be cleaved by alkaline phosphatase(s) that are present on the apical brush-border membranes of the intestine, after which the more hydrophobic parent compound is readily absorbed. Phosphatases are also present in the liver and in the systemic circulation. In order to test the speed of cleavage of the prodrug into the parent drug, […] solutions of each of the test compounds were incubated in rat intestinal (jejunum) fluid. Samples were taken at times=0, 5, 15, 30 and 60 min and the mixtures were quenched by the addition of acetonitrile containing an internal standard. Samples were analyzed by full scan LC/MS. The following protocol was used:
10 mM DMSO stock solutions were thawed or prepared for the positive control (Enalapril) and each test article. Internal standard (IS) crash solution in acetonitrile (ACN) with 20 ng/ml of Compound Z, depicted below, was prepared. Stock (250 uM) was prepared from 10 mM in 50/50 acetonitrile/H2O. Rat intestinal fluid vials were thawed in a water bath at rt.
In a 96-well, 1 ml plate, 48 uL of rat intestinal fluid was aliquoted in triplicate for each time point. The t0 (“0 min”) time point was prepared separately by adding 450 ul of IS crash solution to 48 ul of intestinal fluid, then adding 2 uL of test compound. 2 ul of the 250 uM substock was added to initiate the reaction at 5 min, 15 min, 30 min, and 60 min. The plate prepared in the above steps was covered with a plastic or foil seal and was set in the 37° C. incubator, lightly shaking. For each time point, 450 ul of IS crash solution was added to quench the reaction. The plates were centrifuged at 4000 RPM for 10 minutes at 4° C. 50 ul of supernatant was transferred into 50 ul of H2O and analyzed using LC/MS.
The disappearance of the prodrug and the conversion to the parent were monitored over time.

For `O=P(O)(O)OC(CNc1nc(-c2cc(-c3ccon3)n(Cc3ccccc3F)n2)ncc1F)(C(F)(F)F)C(F)(F)F` [Compound I-1], the “sGC agonism as compared to parent drug” value in series [1] (GloSensor assay) is reported as “did not exhibit a high degree of sGC agonism”. The EC50 in series [1] (prodrug) was 4.84 µM. For the same compound, the “prodrug converted into its parent drug” value in series [2] (after 30 minutes of incubation) is listed as “About 80%”. Further, in series [2], the “prodrug converted into its parent drug / cleaved” value was “about 95%” and the half-life came to 16 min.

Consider `O=P(O)(O)OCOC(CNc1nc(-c2cc(-c3ccon3)n(Cc3ccccc3F)n2)ncc1F)(C(F)(F)F)C(F)(F)F` [Compound I-4], for which, in series [2], the “prodrug converted into its parent drug / cleaved” value is reported as “More than 99%” and the half-life is 9 min.

With `OC(CNc1nc(-c2cc(-c3ccon3)n(Cc3ccccc3F)n2)ncc1F)(C(F)(F)F)C(F)(F)F` [Intermediate 3], the EC50 in series [1] (Parent compound column) worked out at 0.072 µM.

One may read the EC50 as the midpoint of the concentration-response curve.
